The source of these data is US12578343B2, “Selective ACKR3 modulators and uses thereof” (Luxembourg Institute of Health (LIH), priority 2019, dated 2026).

For test [1], the target named is T1, ACKR3 (Homo sapiens, UniProt P25106). The test is classed as cell-based. More on the design: expressed in transfected cells; host or cells: U87 cells, transient co-transfection of pNBe vectors.
Target sequence in this assay (P25106 whole entry): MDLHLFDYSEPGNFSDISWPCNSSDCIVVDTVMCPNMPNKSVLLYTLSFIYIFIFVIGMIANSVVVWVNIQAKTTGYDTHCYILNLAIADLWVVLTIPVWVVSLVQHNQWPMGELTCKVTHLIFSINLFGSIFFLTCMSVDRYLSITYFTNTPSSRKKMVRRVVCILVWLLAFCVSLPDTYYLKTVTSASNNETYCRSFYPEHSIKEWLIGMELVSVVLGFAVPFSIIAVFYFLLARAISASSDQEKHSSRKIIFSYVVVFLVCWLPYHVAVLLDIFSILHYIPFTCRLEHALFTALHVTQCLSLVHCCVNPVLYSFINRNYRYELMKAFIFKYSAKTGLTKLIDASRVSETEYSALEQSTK
Target sequence in this assay (P49407 whole entry partner): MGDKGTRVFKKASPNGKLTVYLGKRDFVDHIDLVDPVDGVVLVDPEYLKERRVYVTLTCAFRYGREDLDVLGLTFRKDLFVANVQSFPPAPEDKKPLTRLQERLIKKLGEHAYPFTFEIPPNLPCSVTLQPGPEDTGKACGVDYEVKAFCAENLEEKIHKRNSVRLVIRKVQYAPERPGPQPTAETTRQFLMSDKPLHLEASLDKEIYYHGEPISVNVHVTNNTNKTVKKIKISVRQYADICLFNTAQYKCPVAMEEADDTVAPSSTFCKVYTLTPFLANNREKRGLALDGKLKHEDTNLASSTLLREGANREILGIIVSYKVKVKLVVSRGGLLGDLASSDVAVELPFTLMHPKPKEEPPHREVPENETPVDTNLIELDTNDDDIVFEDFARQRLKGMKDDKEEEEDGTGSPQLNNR
The target in a further test is T2, MOR (Homo sapiens, UniProt P35372).
T2 construct: expressed in transfected cells; host or cells: U87 cells, transient co-transfection of pNBe vectors
T2 sequence (P35372 whole entry): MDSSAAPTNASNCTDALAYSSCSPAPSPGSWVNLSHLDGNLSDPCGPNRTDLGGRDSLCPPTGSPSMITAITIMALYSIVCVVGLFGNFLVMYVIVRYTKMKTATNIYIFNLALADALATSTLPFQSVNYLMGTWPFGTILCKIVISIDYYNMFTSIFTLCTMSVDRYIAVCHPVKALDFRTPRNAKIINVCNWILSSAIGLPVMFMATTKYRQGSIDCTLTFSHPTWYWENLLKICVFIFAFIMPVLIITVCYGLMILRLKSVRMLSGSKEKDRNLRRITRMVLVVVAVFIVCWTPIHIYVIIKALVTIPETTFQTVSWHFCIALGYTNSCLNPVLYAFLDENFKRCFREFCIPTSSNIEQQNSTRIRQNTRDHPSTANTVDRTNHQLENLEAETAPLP
The test is classed as cell-based. The conditions noted are these: concentrations as high as 3 μM. The procedure: (§1) In brief, 1.2×10^6 U87 cells were plated in 10 cm-culture dishes and 48 hours later co-transfected with pNBe vectors encoding GPCRs C-terminally tagged to SmBiT and human β-arrestin-1 or -2 or mini G proteins (mG, engineered GTPase domains of Gα subunits,) N-terminally fused to LgBiT. 48 hours post-transfection cells were harvested, incubated 25 minutes at 37° C. with Nano-Glo Live Cell substrate diluted 200-fold and distributed into white 96-well plates (5×10^4 cells per well). Ligand-induced, β-arrestin and mG recruitment to GPCRs was evaluated with a Mithras LB940 luminometer (Berthold Technologies) for 20 minutes. For concentration-response curves, the signal recorded with a saturating concentration of full agonist for each receptor was set as 100%.

A further test addresses T3, DOR (Homo sapiens, UniProt P41143).
T3 construct: expressed in transfected cells; host or cells: U87 cells, transient co-transfection of pNBe vectors
The experiment in a line: β-arrestin-1 recruitment to DOR (NanoBiT, U87 cells). In kind it is cell-based. The conditions noted are these: concentrations as high as 3 μM. On the procedure: as §1
(In general: Activated receptors often draw arrestin, which recruitment assays turn into a signal.)

In test [2] the target is T1, ACKR3. Briefly: Uptake of fluorescently labelled opioid peptides by ACKR3-expressing U87 cells, imaging flow cytometry. In kind it is cell-based. More on the design: expressed in transfected cells; for the receptor comparison in the uptake assay, transient pcDNA3.1). Particulars: saturating concentration of LIH383 (3 μM). In general terms: A flow cytometer gives signals particle by particle.
Target sequence in this assay (P25106 whole entry): as the sequence (P25106 whole entry) above
Experimental: Visualization of Fluorescently Labelled Opioid Peptides Uptake by Imagestream
48 hours post transfection, cells were harvested and treated as described above. Dead cells were excluded using Zombie NIR or Zombie Green viability dye (BioLegend) for FAM-labelled peptides and Cy5-labelled peptides, respectively. Images of 1×10^4 in-focus, living single cells were acquired with an ImageStream MKII imaging flow cytometer (Amnis) using 40× magnification (60× magnification for smNPCs). Samples were analysed using Ideas6.2 software. The number of spots per cell was determined using a mask-based software wizard.

A further test concerns the target T4, mouse ACKR3 (mACKR3) (Mus musculus, UniProt P56485).
T4 construct: expressed in transfected cells; host or cells: U87 cells
The experiment in a line: β-arrestin-1 recruitment to mouse ACKR3. In kind it is cell-based. On the procedure: as §1

In test [3] the target is T1, ACKR3. Briefly: ACKR3-mediated depletion of extracellular dynorphin A monitored by its ability to activate KOR (U87-ACKR3 cells). In kind it is cell-based. More on the design: expressed in transfected cells; for the receptor comparison in the uptake assay, transient pcDNA3.1). The conditions noted are these: pre-treatment of ACKR3-expressing cells, saturating concentration. On the procedure:
as §1
Target sequence in this assay (P25106 whole entry): as above

The next test has as its target T5, NOP (Homo sapiens, UniProt P41146).
T5 construct: expressed in transfected cells; host or cells: U87 cells, transient co-transfection of pNBe vectors
The experiment in a line: β-arrestin-1 recruitment to NOP (NanoBiT, U87 cells). In kind it is cell-based. The conditions noted are these: concentrations as high as 3 μM. The procedure:
as §1

Test [4] deals with 24 other chemokine receptors. Briefly: β-arrestin recruitment to all other chemokine receptors (panel, NanoBiT, U87 cells). In kind it is cell-based, human. The conditions noted are these: 3 μM. On the procedure:
as §1

Another test has as its target KOR (Homo sapiens, UniProt P41145). Briefly: β-arrestin-1 recruitment to KOR (NanoBiT, U87 cells). In kind it is cell-based. More on the design: expressed in transfected cells; host or cells: U87 cells, transient co-transfection of pNBe vectors. Particulars: concentrations as high as 3 μM. The procedure:
as §1

Test [5] relates to rat locus coeruleus neurons. The test is classed as cell-based. The procedure:
1.9. Ex Vivo Rat Neuron Depolarization
Adult male Wistar rats (6 to 8-week old) were housed at room temperature in groups of three or four with a 12:12 hour light-dark cycle. All animals had access to ad libitum food and water. All procedures were carried out in accordance with guidelines of the European Communities Council Directive of 24 Nov. 1986 (86609EE) and were accepted by the Ethics Committee for Animal Use of the University of Liège (protocol 2061). All efforts were made to minimize animal suffering.
1.9.2. Brain Explant Preparation and Recording Procedures
Rats were anaesthetized with chloral hydrate (400 mg/kg, i.p.) and placed under a cap with oxygenated air (95% O2, 5% CO2) two minutes prior to decapitation. After decapitation, the brain was rapidly removed and placed in ice cold (˜2° C.) oxygenated artificial cerebrospinal fluid (aCSF) of the following composition: NaCl 130 mM, KCl 3.5 mM, NaH2PO4 1.25 mM, NaHCO3 24 mM, Glucose 10 mM, CaCl2 2 mM, MgSO4 1.25 mM. A block of tissue containing the pons was placed in a vibrating blade microtome (Vibratome 1000 Plus, Sectioning System) and a slice containing the locus coeruleus (LC) immediately rostral to the fourth ventricle and the VIIth nerve, used as anatomical landmarks, was cut coronally (400 μm thick). The slice was placed on a nylon mesh in a recording chamber (volume: 0.5 ml) where it was superfused by oxygenated aCSF (34.0±0.5° C.) at a rate of 2 to 3 ml/min. The LC was recognized as a translucent region during transillumination, lateral to the fourth ventricle. All experiments were performed in oxygenated aCSF with synaptic blockers consisting of 10 μM CNQX, 10 μM SR95531, 1 μM MK801, and 1 μM CGP55845, which block AMPA/Kainate, GABAA, NMDA, and GABAB receptors, respectively. This ensured that the spontaneous firing of the neurons was only due to its endogenous pace making.
Extracellular single cell recordings of LC neurons were performed with glass microelectrodes filled with aCSF (resistance 10-20 MΩ). Signals were passed through an impedance adapter and were amplified 1000× using a home-made amplifier. […] Data were collected and analysed with the Spike 2 software (Cambridge Electronic Design). […] The duration of the extracellularly recorded action potentials was 2-3 ms. Drugs and peptides were applied for at least 10 minutes.
The mean firing rate over 1 minute was calculated during each condition. Next, the inhibition of firing by the peptides and drugs used (LIH383 and dynorphin) was quantified as the % of total inhibition. For this purpose, present inventors considered the mean firing rate during the last minute of each condition (control, LIH383 alone, LIH383 plus a given concentration of dynorphin).

Test [6] addresses ACKR3. Briefly: Binding competition | ACKR3 | IC50 (nM). An excerpt:
Table printed on a drawing sheet, FIG. 1 (continued) H
Head of the field: Binding competition | ACKR3 | IC50 (nM)
The patent's description of the figure: FIG. 1 Opioid peptide library screening on ACKR3, hit confirmation and comparison with classical opioid receptors. (A) The ability of 58 compounds, including natural opioid peptides from the four opioid families, variants thereof and small molecule opioid receptor modulators, to induce β-arrestin-2 recruitment to ACKR3, CXCR4 and CXCR3 in U87 cells at a concentration of 5 μM. Positive control chemokines were used at a concentration of 300 nM. Results are expressed as fold change over vehicle-treated cells and presented as mean±S.D of two replicates (B-F) Comparison of potency and efficacy of ACKR3-activating peptides in inducing β-arrestin-1 recruitment to the opioid receptors MOR (B), DOR (C), KOR (D), NOP (E) and ACKR3 (F) in U87 cells. Results are expressed as percentage of indicated agonist response. […] Results from B—H are presented as mean±S.E.M (n ? 3).
Where the first naming reader finds the target: head: Binding competition | ACKR3 | IC50 (nM)

T5 sequence (P41146 whole entry): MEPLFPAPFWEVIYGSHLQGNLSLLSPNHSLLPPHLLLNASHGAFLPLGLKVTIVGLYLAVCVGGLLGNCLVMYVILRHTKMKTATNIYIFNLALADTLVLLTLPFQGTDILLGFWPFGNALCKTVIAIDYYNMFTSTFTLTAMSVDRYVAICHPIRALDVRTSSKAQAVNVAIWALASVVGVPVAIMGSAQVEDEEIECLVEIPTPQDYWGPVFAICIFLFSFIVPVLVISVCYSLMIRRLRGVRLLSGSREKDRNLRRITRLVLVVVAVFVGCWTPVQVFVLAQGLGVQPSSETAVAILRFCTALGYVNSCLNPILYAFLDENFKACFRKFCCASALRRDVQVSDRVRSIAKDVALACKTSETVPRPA
T3 sequence (P41143 whole entry): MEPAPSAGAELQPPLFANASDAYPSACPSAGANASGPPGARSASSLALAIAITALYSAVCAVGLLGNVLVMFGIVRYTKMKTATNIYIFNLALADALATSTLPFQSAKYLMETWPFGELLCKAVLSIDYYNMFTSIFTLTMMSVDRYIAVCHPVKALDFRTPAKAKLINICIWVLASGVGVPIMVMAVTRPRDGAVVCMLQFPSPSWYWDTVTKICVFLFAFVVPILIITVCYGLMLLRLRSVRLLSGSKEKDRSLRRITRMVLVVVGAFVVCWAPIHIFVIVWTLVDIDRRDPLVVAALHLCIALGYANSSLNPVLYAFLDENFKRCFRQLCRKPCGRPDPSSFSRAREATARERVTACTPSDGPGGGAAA
Sequence of KOR (P41145 whole entry): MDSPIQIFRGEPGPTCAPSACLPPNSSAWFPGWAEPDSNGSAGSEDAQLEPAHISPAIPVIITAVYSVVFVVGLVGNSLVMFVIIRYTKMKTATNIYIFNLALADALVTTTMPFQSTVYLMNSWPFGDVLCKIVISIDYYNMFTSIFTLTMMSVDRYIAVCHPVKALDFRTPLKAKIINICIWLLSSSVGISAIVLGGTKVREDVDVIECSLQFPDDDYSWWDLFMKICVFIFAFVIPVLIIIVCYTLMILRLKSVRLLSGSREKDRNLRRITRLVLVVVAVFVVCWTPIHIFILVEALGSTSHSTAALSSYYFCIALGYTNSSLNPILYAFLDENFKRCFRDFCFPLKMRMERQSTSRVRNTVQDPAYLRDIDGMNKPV
T4 sequence (P56485 whole entry): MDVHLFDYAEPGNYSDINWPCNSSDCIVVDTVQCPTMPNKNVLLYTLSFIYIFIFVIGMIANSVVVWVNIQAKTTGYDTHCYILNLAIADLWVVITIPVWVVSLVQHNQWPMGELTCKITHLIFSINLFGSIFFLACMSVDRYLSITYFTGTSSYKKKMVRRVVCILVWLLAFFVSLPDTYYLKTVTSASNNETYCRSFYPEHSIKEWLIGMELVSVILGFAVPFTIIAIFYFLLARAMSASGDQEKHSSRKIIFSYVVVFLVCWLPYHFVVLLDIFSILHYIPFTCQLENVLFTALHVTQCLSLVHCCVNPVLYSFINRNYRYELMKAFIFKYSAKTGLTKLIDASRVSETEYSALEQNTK
T4 sequence (P49407 whole entry partner): as the sequence (P49407 whole entry partner) above

Turning to `CSCC[C@H](NC(=O)[C@H](Cc1ccccc1)NC(=O)CNC(=O)CNC(=O)[C@@H](N)Cc1ccccc1)C(=O)N[C@@H](CCCNC(=N)N)C(=O)N[C@@H](CCCNC(=N)N)C(=O)N[C@@H](CCCCN)C(N)=O` [LIH383], on ACKR3 [1], the “EC50 (range in words)” value is reported as “subnanomolar range” and the “potency relative to known ACKR3 agonists such as compound 18” value amounted to 20 times. Also, the “activation or inhibition of MOR” value at MOR is “no activation or inhibition”. For the same molecule, on DOR, the “activation or inhibition of DOR” value is “no activation or inhibition”. The “dynorphin A-FAM uptake by U87-ACKR3 cells compared to U87-ACKR3 cells pre-incubated with LIH383” value on ACKR3 [2] was “notably higher number of distinguishable vesicle-like structures and mean fluorescent intensity”. Also, the “agonist activity on mouse ACKR3 compared with human ACKR3” value on mouse ACKR3 (mACKR3) is “equivalent activity on human and mouse ACKR3”. Besides, on ACKR3 [3], the “reversal of the ACKR3-mediated impairment of dynorphin A potency to activate KOR by pre-treatment” value is “reversed”. Besides, on NOP, the “activation or inhibition of NOP” value is “no activation or inhibition”. Besides, in test [4], the “β-arrestin recruitment to the other chemokine receptors” value is on record as “no activation or inhibition”. Further, the “activation or inhibition of KOR” value at KOR is recorded as “no activation or inhibition”. Also, in [5] (LIH383 1 or 3 μM), the “effect of pretreatment on dynorphin A-induced depolarization inhibition” value was “significant increase of depolarization inhibition and an apparent improved potency of dynorphin A towards its classical receptors”. Besides, the “inhibition of neuronal firing” value in [5] (concentration as high as 3 μM) was “did not lead to significant inhibition of neuronal firing”. At ACKR3 [6], this molecule registered an IC50 of 4 nM.

Broadly, the IC50 is the concentration that gives 50% inhibition. Lower therefore signals greater potency.
